Data as given in patent publication US9029409B2, “Isoxazolines as therapeutic agents” (AbbVie Inc., priority 2011, dated 2015).

Biological target: T1, recombinant human MMP13 catalytic domain (CD) (Homo sapiens, UniProt P45452)
T1 construct: catalytic domain (CD) construct encompassing residues 20-274 (SWISS-PROT P45452); made in house
Assay: MMP-13 catalytic domain FRET enzyme assay
Type: biochemical
Conditions: recombinant human MMP-13 catalytic domain
Summary of the method: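 Human MMP-13 catalytic domain (res 20-274, E. coli-expressed), 0.4 nM, cleaving FRET peptide (0.25 μM) in Tris pH 7.5/CaCl2/NaCl/Brij 35, 5% DMSO, 60 min RT; EDTA-quenched, fluorescence 485/535 nm. IC50 from sigmoidal fit of % inhibition. Some compounds also run on APMA-activated full-length MMP13 (2 nM).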

Row | SMILES | IC50 [nM]
1 | COc1ccc(CNC(=O)c2cc(C3=NOC(c4ccccc4)C3)nc(C)n2)cc1 (stereo not drawn) | 10 to 100
2 | COc1ccc(CNC(=O)c2cc(C3=NOC(C)(c4ccc(CO)cc4)C3)nc(C)n2)cc1 (stereo not drawn) | 100 to 1000
3 | COc1cc(CNC(=O)c2cc(C3=NOC(c4cccc(CN5CCOCC5)c4)C3)nc(C)n2)ccc1F (stereo not drawn) | < 10
4 | CNC(=O)c1cccc(C2CC(c3cc(C(=O)NCc4ccc(F)c(OC)c4)nc(C)n3)=NO2)c1 (stereo not drawn) | 10 to 100
5 | CNC(=O)c1ccc(C2CC(c3cc(C(=O)NCc4ccc(F)c(OC)c4)nc(C)n3)=NO2)cc1 (stereo not drawn) | < 10
6 | COc1cc(CNC(=O)c2cc(C3=NOC(c4ccsc4)C3)nc(C)n2)ccc1F (stereo not drawn) | < 10
7 | COc1cc(CNC(=O)c2cc(C3=NOC(c4ccncc4)C3)nc(C)n2)ccc1F (stereo not drawn) | < 10
8 | COc1cc(CNC(=O)c2cc(C3=NOC(c4ccc(CN5CCS(=O)(=O)CC5)cc4)C3)nc(C)n2)ccc1F (stereo not drawn) | < 10
9 | COc1cc(CNC(=O)c2cc(C3=NOC(c4ccc(C(=O)NCCO)cc4)C3)nc(C)n2)ccc1F (stereo not drawn) | 10 to 100
10 | COc1cc(CNC(=O)c2cc(C3=NOC(CC4CCN(C(C)=O)CC4)C3)nc(C)n2)ccc1F (stereo not drawn) | 10 to 100
11 | COc1cc(CNC(=O)c2cc(C3=NOC(c4cncnc4)C3)nc(C)n2)ccc1F (stereo not drawn) | 10 to 100
12 | COc1cc(CNC(=O)c2cc(C3=NOC(c4ccc(C(C)(C)O)cc4)C3)nc(C)n2)ccc1F (stereo not drawn) | 10 to 100
13 | COc1cc(CNC(=O)c2cc(C3=NOC(CC4CCN(C(=O)CO)CC4)C3)nc(C)n2)ccc1F (stereo not drawn) | 10 to 100
14 | COc1cc(CNC(=O)c2cc(C3=NOC(CC4CCN(S(C)(=O)=O)CC4)C3)nc(C)n2)ccc1F (stereo not drawn) | 10 to 100
15 | COc1cc(CNC(=O)c2cc(C3=NOC(c4ccnc(C(N)=O)c4)C3)nc(C)n2)ccc1F (stereo not drawn) | 10 to 100
16 | COc1cc(CNC(=O)c2cc(C3=NOC(c4cn[nH]c4)C3)nc(C)n2)ccc1F (stereo not drawn) | 10 to 100
17 | COc1cc(CNC(=O)c2cc(C3=NOC([C@H]4CC[C@H](NC(C)=O)CC4)C3)nc(C)n2)ccc1F (stereo partly drawn) | < 10
18 | COc1cc(CNC(=O)c2cc(C3=NOC([C@H]4CC[C@H](NS(C)(=O)=O)CC4)C3)nc(C)n2)ccc1F (stereo partly drawn) | < 10
19 | COc1cc(CNC(=O)c2cc(C3=NOC([C@H]4CC[C@H](NC(=O)CO)CC4)C3)nc(C)n2)ccc1F (stereo partly drawn) | < 10
20 | COc1cc(CNC(=O)c2cc(C3=NOC(c4ncccn4)C3)nc(C)n2)ccc1F (stereo not drawn) | 10 to 100
21 | COc1cc(CNC(=O)c2cc(C3=NOC(C4CCOCC4)C3)nc(C)n2)ccc1F (stereo not drawn) | < 10
22 | Cc1nc(C(=O)NCc2ccc(F)c(C)c2)cc(C2=NOC(c3ccccn3)C2)n1 (stereo not drawn) | 10 to 100
23 | CC(=O)N1CCC(C2CC(c3cc(C(=O)NCc4ccc(F)c(C)c4)nc(C)n3)=NO2)CC1 (stereo not drawn) | 10 to 100
24 | COc1cc(CNC(=O)c2cc(C3=NOC(C(=O)N4CCOCC4)C3)nc(C)n2)ccc1F (stereo not drawn) | > 1000
25 | COc1cc(CNC(=O)c2cc(C3=NOC(c4ccnc(C(C)(C)O)c4)C3)nc(C)n2)ccc1F (stereo not drawn) | 10 to 100
26 | COc1cc(CNC(=O)c2cc(C3=NOC(c4nn[nH]n4)C3)nc(C)n2)ccc1F (stereo not drawn) | > 1000

Row | SMILES | IC50 [nM]
27 | COc1cc(CNC(=O)c2cc(C3=NOC(C4CCN(C(=O)CS(C)(=O)=O)CC4)C3)nc(C)n2)ccc1F (stereo not drawn) | 10 to 100
28 | COc1cc(CNC(=O)c2cc(C3=NOC(C4CCN(C(=O)Nc5ccon5)CC4)C3)nc(C)n2)ccc1F (stereo not drawn) | 10 to 100
29 | CNC(=O)N1CCC(C2CC(c3cc(C(=O)NCc4ccc(F)c(OC)c4)nc(C)n3)=NO2)CC1 (stereo not drawn) | < 10
30 | COc1cc(CNC(=O)c2cc(C3=NO[C@H]([C@H]4CO[C@H](CC#N)CO4)C3)nc(C)n2)ccc1F | < 10
31 | COc1cc(CNC(=O)c2cc(C3=NO[C@H]([C@H]4CO[C@H](CS(C)(=O)=O)CO4)C3)nc(C)n2)ccc1F | 10 to 100
32 | COc1cc(CNC(=O)c2cc(C3=NO[C@H]([C@H]4CO[C@H](C(=O)O)CO4)C3)nc(C)n2)ccc1F | < 10
33 | COc1cc(CNC(=O)c2cc(C3=NOC(CN4CCOCC4)C3)nc(C)n2)ccc1F (stereo not drawn) | > 1000
34 | COc1cc(CNC(=O)c2cc(C3=NO[C@H]([C@H]4CO[C@H](C(N)=O)CO4)C3)nc(C)n2)ccc1F | < 10
35 | COc1cc(CNC(=O)c2cc(C3=NOC(c4c[nH]cn4)C3)nc(C)n2)ccc1F (stereo not drawn) | > 1000
36 | COc1cc(CNC(=O)c2cc(C3=NOC([C@H]4CC[C@H](NC(=O)CC#N)CC4)C3)nc(C)n2)ccc1F (stereo partly drawn) | < 10
37 | COc1cc(CNC(=O)c2cc(C3=NOC([C@H]4CC[C@H](NS(N)(=O)=O)CC4)C3)nc(C)n2)ccc1F (stereo partly drawn) | < 10
38 | COc1cc(CNC(=O)c2cc(C3=NNC(c4cccnc4)C3)nc(C)n2)ccc1F (stereo not drawn) | 10 to 100
39 | CNC(=O)Cn1cc(C2CC(c3cc(C(=O)NCc4ccc(F)c(OC)c4)nc(C)n3)=NO2)ccc1=O (stereo not drawn) | < 10
40 | COc1cc(CNC(=O)c2cc(C3=NO[C@H](c4ccn(C)c(=O)c4)C3)nc(C)n2)ccc1F | < 10
41 | COc1cc(CNC(=O)c2cc(C3=NO[C@@H](c4ccn(C)c(=O)c4)C3)nc(C)n2)ccc1F | 100 to 1000
42 | COc1cc(CNC(=O)c2cc(C3=NOC(c4ccc(=O)n(C(C)C)c4)C3)nc(C)n2)ccc1F (stereo not drawn) | < 10
43 | CC(=O)N[C@H]1CC[C@H](C2CC(c3cc(C(=O)NCc4ccnc5ccccc45)nc(C)n3)=NO2)CC1 (stereo partly drawn) | 100 to 1000
44 | Cc1nc(C(=O)NCc2ccnc3ccccc23)cc(C2=NO[C@H]([C@H]3CO[C@H](CO)CO3)C2)n1 | 100 to 1000
45 | Cc1nc(C(=O)NCc2ccnc3ccccc23)cc(C2=NO[C@@H]([C@H]3CO[C@H](CO)CO3)C2)n1 | 100 to 1000
46 | Cc1nc(C(=O)NCc2ccc3c(c2)NC(=O)CC3)cc(C2=NO[C@H]([C@H]3CO[C@H](CO)CO3)C2)n1 | 10 to 100
47 | Cc1nc(C(=O)NCc2ccc3c(c2)NC(=O)CC3)cc(C2=NO[C@@H]([C@H]3CO[C@H](CO)CO3)C2)n1 | 100 to 1000
48 | CNC(=O)Cn1ccc(C2CC(c3cc(C(=O)NCc4ccc(F)c(OC)c4)nc(C)n3)=NO2)cc1=O (stereo not drawn) | 10 to 100
49 | Cc1nc(C(=O)NCc2ccc(F)c(F)c2)cc(C2=NO[C@H](c3ccc(=O)n(C)c3)C2)n1 | < 10
50 | Cc1nc(C(=O)NCc2ccc(F)c(F)c2)cc(C2=NO[C@@H](c3ccc(=O)n(C)c3)C2)n1 | 100 to 1000
51 | COc1ccc(C2CC(c3cc(C(=O)NCc4ccc(F)c(OC)c4)nc(C)n3)=NO2)nn1 (stereo not drawn) | 10 to 100
52 | CNC(=O)Cn1cc([C@@H]2CC(c3cc(C(=O)NCc4ccc(F)c(OC)c4)nc(C)n3)=NO2)ccc1=O | < 10

Row | SMILES | IC50 [nM]
53 | CNC(=O)Cn1cc([C@H]2CC(c3cc(C(=O)NCc4ccc(F)c(OC)c4)nc(C)n3)=NO2)ccc1=O | 10 to 100
54 | COc1cc(CNC(=O)c2cc(C3=NOC(c4ccc(=O)n(CC(=O)N(C)C)c4)C3)nc(C)n2)ccc1F (stereo not drawn) | 10 to 100
55 | Cc1nc(C(=O)NCc2ccc3c(c2)NC(=O)CO3)cc(C2=NOC(c3ccc(=O)n(C)c3)C2)n1 (stereo not drawn) | < 10
56 | COc1cc(CNC(=O)c2cc(C3=NOC(c4ccc(=O)n(CC(=O)N(C)OC)c4)C3)nc(C)n2)ccc1F (stereo not drawn) | < 10
57 | CNC(=O)Cn1cc(C2CC(c3cc(C(=O)NCc4ccc(F)c(OC)c4)nc(C)n3)=NO2)cc(Cl)c1=O (stereo not drawn) | < 10
58 | COc1cccc(C2CC(c3cc(C(=O)NCc4ccc(F)c(OC)c4)nc(C)n3)=NO2)n1 (stereo not drawn) | 10 to 100
59 | COc1cc(CNC(=O)c2cc(C3=NOC(c4ccc(=O)n(C5CC5)n4)C3)nc(C)n2)ccc1F (stereo not drawn) | 10 to 100
60 | COc1cc(CNC(=O)c2cc(C3=NOC(c4ccn(C5CC5)c(=O)c4)C3)nc(C)n2)ccc1F (stereo not drawn) | 10 to 100
61 | COc1cc(CNC(=O)c2cc(C3=NOC(c4ccn(CC(=O)N(C)C)c(=O)c4)C3)nc(C)n2)ccc1F (stereo not drawn) | 10 to 100
62 | CC(=O)N[C@H]1CC[C@H]([C@@H]2CC(c3cc(C(=O)NCc4ccc5c(c4)NC(=O)CO5)nc(C)n3)=NO2)CC1 | < 10
63 | CC(=O)N[C@H]1CC[C@H]([C@H]2CC(c3cc(C(=O)NCc4ccc5c(c4)NC(=O)CO5)nc(C)n3)=NO2)CC1 | < 10
64 | CNC(=O)Cn1nc(C2CC(c3cc(C(=O)NCc4ccc(F)c(OC)c4)nc(C)n3)=NO2)ccc1=O (stereo not drawn) | 10 to 100
65 | Cc1nc(C(=O)NCc2ccc(=O)n(C)c2)cc(C2=NO[C@H]([C@H]3CO[C@H](CO)CO3)C2)n1 | 10 to 100
66 | Cc1nc(C(=O)NCc2ccc(=O)n(C)c2)cc(C2=NO[C@@H]([C@H]3CO[C@H](CO)CO3)C2)n1 | 100 to 1000
67 | Cc1nc(C(=O)NCc2ccc3c(c2)NC(=O)CO3)cc(C2=NOC([C@H]3CC[C@H](NC(=O)[C@H](C)O)CC3)C2)n1 (stereo partly drawn) | < 10
68 | COc1cc(CNC(=O)c2cc(C3=NOC(c4cc(Cl)c(=O)n(C5CC5)c4)C3)nc(C)n2)ccc1F (stereo not drawn) | < 10
69 | COc1cc(CNC(=O)c2cc(C3=NO[C@H](c4ccc(=O)n(C5CC5)c4)C3)nc(C)n2)ccc1F | < 10
70 | COc1cc(CNC(=O)c2cc(C3=NO[C@@H](c4ccc(=O)n(C5CC5)c4)C3)nc(C)n2)ccc1F | 10 to 100
71 | COc1cc(CNC(=O)c2cc(C3=NOC(c4ccc(=O)n(CC(=O)N(C)C)n4)C3)nc(C)n2)ccc1F (stereo not drawn) | 10 to 100
72 | Cc1nc(C(=O)NCc2ccc3c(c2)NC(=O)CO3)cc(C2=NOC(c3ccc(=O)n(C4CC4)c3)C2)n1 (stereo not drawn) | < 10
73 | COc1cc(CNC(=O)c2cc(C3=NOC(c4ccc(=O)n(CC(=O)NC5CC5)c4)C3)nc(C)n2)ccc1F (stereo not drawn) | < 10
74 | COc1cc(CNC(=O)c2cc(C3=NOC(c4ccccc4)C3)c(=O)n(C)n2)ccc1F (stereo not drawn) | 10 to 100
75 | COc1cc(CNC(=O)c2cc(C3=NOC(c4ccn(CC(=O)N(C)OC)c(=O)c4)C3)nc(C)n2)ccc1F (stereo not drawn) | 10 to 100
76 | COc1cc(CNC(=O)c2cc(C3=NOC(c4ccn(CC(=O)NC(C)C)c(=O)c4)C3)nc(C)n2)ccc1F (stereo not drawn) | 10 to 100
77 | Cc1nc(C(=O)NCc2ccc3c(c2)NC(=O)CO3)cc(C2=NO[C@H]([C@H]3CC[C@H](NC(=O)[C@H](C)O)CC3)C2)n1 | < 10
78 | Cc1nc(C(=O)NCc2ccc3c(c2)NC(=O)CO3)cc(C2=NO[C@@H]([C@H]3CC[C@H](NC(=O)[C@H](C)O)CC3)C2)n1 | < 10
